This is an account of results in patent US11780823B2, “Indazole-3-carboxamides and their use as Wnt/β-catenin signaling pathway inhibitors” (BioSplice Therapeutics, Inc., priority 2011, dated 2023).

The test system of this experiment is Wnt activity (wnt-responsive SP5 promoter luciferase reporter in SW480 cells). As to the kind of experiment: Wnt reporter screening assay: SP5 promoter-driven firefly luciferase in SW480 cells. The class given is cell-based. The settings on record: Homo sapiens; SW480 colon cancer cells with SP5 promoter luciferase reporter; half-log dilutions, ten micromolar top concentration; read 24-40 h after compound addition; normalized to DMSO; read-out: Wnt inhibition. From the text:
Another screening assay for Wnt activity is described as follows. Reporter cell lines can be generated by stably transducing cells of cancer cell lines (e.g., colon cancer) with a lentiviral construct that include a wnt-responsive promoter driving expression of the firefly luciferase gene.
Lentiviral constructs can be made in which the SP5 promoter, a promoter having eight TCF/LEF binding sites derived from the SP5 promoter, is linked upstream of the firefly luciferase gene. The lentiviral constructs can also include a hygromycin resistance gene as a selectable marker. The SP5 promoter construct can be used to transduce SW480 cells, a colon cancer cell line having a mutated APC gene that generates a truncated APC protein, leading to de-regulated accumulation of β-catenin.
Cultured SW480 cells bearing a reporter construct can be distributed at approximately 10,000 cells per well into 96 well or 384 well plates. Compounds from a small molecule compound library can then be added to the wells in half-log dilutions using a ten micromolar top concentration. A series of control wells for each cell type receive only buffer and compound solvent. Twenty-four to forty hours after the addition of compound, reporter activity for luciferase can be assayed, for example, by addition of the BrightGlo luminescence reagent (Promega) and the Victor3 plate reader (Perkin Elmer). Readings can be normalized to DMSO only treated cells, and normalized activities can then be used in the IC50 calculations.
In the case of `O=C(Nc1cccnc1)c1n[nH]c2ccc(-c3cccnc3)cc12` [Compound 4, N,5-di(pyridin-3-yl)-1H-indazole-3-carboxamide], the IC50 stood at 160 nM.
On to `O=C(Nc1ccc(Oc2cccc(F)c2)nc1)c1n[nH]c2ccc(-c3cccnc3)cc12` [Compound 19, N-(6-(3-Fluorophenoxy)pyridin-3-yl)-5-(pyridin-3-yl)-1H-indazole-3-carboxamide], for which the IC50 was 107 nM.
For the compound `O=C(Nc1ccc(C(=O)N2CCCC2)nc1)c1n[nH]c2ccc(-c3cncc(CN4CCCCC4)c3)cc12` [Compound 179, 5-(5-(Piperidin-1-ylmethyl)pyridin-3-yl)-N-(6-(pyrrolidine-1-carbonyl)pyridin-3-yl)-1H-indazole-3-carboxamide], the IC50 was 30 nM.
Consider `O=C(Nc1cncc(Cc2ccccc2)c1)c1n[nH]c2ccc(-c3cncc(CN4CCCCC4)c3)cc12` [Compound 80, N-(5-Benzylpyridin-3-yl)-5-(5-(piperidin-1-ylmethyl)pyridin-3-yl)-1H-indazole-3-carboxamide], for which the IC50 was 158 nM.
With `Nc1ncc(NC(=O)c2n[nH]c3ccc(-c4cncc(CN5CCCCC5)c4)cc23)cn1` [Compound 176, N-(2-Aminopyrimidin-5-yl)-5-(5-(piperidin-1-ylmethyl)pyridin-3-yl)-1H-indazole-3-carboxamide] the figure was 30 nM.
Consider `CN(C)C(=O)Nc1cncc(-c2ccc3[nH]nc(C(=O)Nc4cccnc4)c3c2)c1` [Compound 1, 5-(5-(3,3-dimethylureido)pyridin-3-yl)-N-(pyridin-3-yl)-1H-indazole-3-carboxamide], for which the IC50 was 175 nM.
As to `O=C(Nc1cncc(-c2cccc(F)c2)c1)c1n[nH]c2ccc(-c3cccnc3)cc12` [Compound 9, N-(5-(3-Fluorophenyl)pyridin-3-yl)-5-(pyridin-3-yl)-1H-indazole-3-carboxamide], the IC50 is at least 10000 nM.
With `O=C(Nc1cccnc1)c1n[nH]c2ccc(-c3cncc(CN4CCCC4)c3)cc12` [Compound 43, N-(Pyridin-3-yl)-5-(5-(pyrrolidin-1-ylmethyl)pyridin-3-yl)-1H-indazole-3-carboxamide] the figure was 63 nM.
The figure for `O=C(Nc1ccc(C(F)(F)F)nc1)c1n[nH]c2ccc(-c3cncc(F)c3)cc12` [Compound 2, 5-(5-fluoropyridin-3-yl)-N-(6-(trifluoromethyl)pyridin-3-yl)-1H-indazole-3-carboxamide] is 5000 nM.
For the compound `O=C(Nc1ccc2c(c1)OCO2)c1n[nH]c2ccc(-c3cncc(CN4CCCCC4)c3)cc12` [Compound 78, N-(Benzo[d][1,3]dioxol-5-yl)-5-(5-(piperidin-1-ylmethyl)pyridin-3-yl)-1H-indazole-3-carboxamide], the IC50 stood at 239 nM.
In the case of `O=C(Nc1cccnc1)c1n[nH]c2ccc(-c3cncc(F)c3)cc12` [Compound 13, 5-(5-fluoropyridin-3-yl)-N-(pyridin-3-yl)-1H-indazole-3-carboxamide], the IC50 was 1250 nM.
With `O=C(Nc1cncc(F)c1)c1n[nH]c2ccc(-c3cncc(CN4CCCCC4)c3)cc12` [Compound 168, N-(5-Fluoropyridin-3-yl)-5-(5-(piperidin-1-ylmethyl)pyridin-3-yl)-1H-indazole-3-carboxamide] the figure was 66 nM.
Consider `O=C(Nc1ccc(O)nc1)c1n[nH]c2ccc(-c3cncc(CN4CCCCC4)c3)cc12` [Compound 178, N-(6-Hydroxypyridin-3-yl)-5-(5-(piperidin-1-ylmethyl)pyridin-3-yl)-1H-indazole-3-carboxamide], for which the IC50 came out at 297 nM.
As for `O=C(NC1CCCC1)c1ccc(NC(=O)c2n[nH]c3ccc(-c4cncc(CN5CCCCC5)c4)cc23)cn1` [Compound 184, N-(6-(Cyclopentylcarbamoyl)pyridin-3-yl)-5-(5-(piperidin-1-ylmethyl)pyridin-3-yl)-1H-indazole-3-carboxamide], the IC50 turned out to be 40 nM.
With `O=C(Nc1cncc(F)c1)c1n[nH]c2ccc(-c3cccnc3)cc12` [Compound 23, N-(5-Fluoropyridin-3-yl)-5-(pyridin-3-yl)-1H-indazole-3-carboxamide] the figure was 120 nM; with `O=C(Nc1cccnc1)c1n[nH]c2ccc(-c3cncc(CN4CCCCC4)c3)cc12` [Compound 46, 5-(5-(Piperidin-1-ylmethyl)pyridin-3-yl)-N-(pyridin-3-yl)-1H-indazole-3-carboxamide], 15 nM; with `CN1CCN(c2ncccc2NC(=O)c2n[nH]c3ccc(-c4cccnc4)cc23)CC1` [Compound 11, N-(2-(4-Methylpiperazin-1-yl)pyridin-3-yl)-5-(pyridin-3-yl)-1H-indazole-3-carboxamide], at least 10000 nM.
`O=C(Nc1cccnc1)c1n[nH]c2ccc(-c3cncc(CN4CCC(F)(F)C4)c3)cc12` [Compound 188, 5-(5-((3,3-Difluoropyrrolidin-1-yl)methyl)pyridin-3-yl)-N-(pyridin-3-yl)-1H-indazole-3-carboxamide]: the IC50 was 9 nM.
As for `O=C(Nc1ccccc1)c1n[nH]c2ccc(-c3cncc(CN4CCCCC4)c3)cc12` [Compound 82, N-Phenyl-5-(5-(piperidin-1-ylmethyl)pyridin-3-yl)-1H-indazole-3-carboxamide], the IC50 fell in the range of 143 to 188 nM.
As for `O=C(Nc1cnccc1C(F)(F)F)c1n[nH]c2ccc(-c3cncc(CN4CCCCC4)c3)cc12` [Compound 47, 5-(5-(Piperidin-1-ylmethyl)pyridin-3-yl)-N-(4-(trifluoromethyl)pyridin-3-yl)-1H-indazole-3-carboxamide], the IC50 came to 71 nM.
Consider `Cn1nc(NC(=O)c2n[nH]c3ccc(-c4cccnc4)cc23)cc1C(F)(F)F` [Compound 37, N-(1-Methyl-5-(trifluoromethyl)-1H-pyrazol-3-yl)-5-(pyridin-3-yl)-1H-indazole-3-carboxamide], for which the IC50 worked out at 1120 nM.
For `O=C(NC1CCCCC1)c1n[nH]c2ccc(-c3cncc(CN4CCCCC4)c3)cc12` [Compound 77, N-Cyclohexyl-5-(5-(piperidin-1-ylmethyl)pyridin-3-yl)-1H-indazole-3-carboxamide], the IC50 was 2650 nM.
As to `N#Cc1cncc(-c2ccc3[nH]nc(C(=O)Nc4cccnc4)c3c2)c1` [Compound 66, 5-(5-Cyanopyridin-3-yl)-N-(pyridin-3-yl)-1H-indazole-3-carboxamide], the IC50 was at least 10000 nM.
With `COc1ccc(-c2ccc3[nH]nc(C(=O)Nc4cccnc4)c3c2)cn1` [Compound 54, 5-(6-Methoxypyridin-3-yl)-N-(pyridin-3-yl)-1H-indazole-3-carboxamide] the figure was 158 nM.
Consider `CN(C)Cc1cncc(NC(=O)c2n[nH]c3ccc(-c4cncc(CN5CCCCC5)c4)cc23)c1` [Compound 86, N-(5-((Dimethylamino)methyl)pyridin-3-yl)-5-(5-(piperidin-1-ylmethyl)pyridin-3-yl)-1H-indazole-3-carboxamide], for which the IC50 amounted to 66 nM.
With `CN1CCN(Cc2ccc(NC(=O)c3n[nH]c4ccc(-c5cccnc5)cc34)cn2)CC1` [Compound 15, N-(6-((4-Methylpiperazin-1-yl)methyl)pyridin-3-yl)-5-(pyridin-3-yl)-1H-indazole-3-carboxamide], the IC50 was determined as 37 nM.
With `CN(C)Cc1cncc(NC(=O)c2n[nH]c3ccc(-c4cccnc4)cc23)c1` [Compound 7, N-(5-((Dimethylamino)methyl)pyridin-3-yl)-5-(pyridin-3-yl)-1H-indazole-3-carboxamide] the figure was 110 nM; with `O=C(Nc1cnccc1C(F)(F)F)c1n[nH]c2ccc(-c3cncc(CN4CCCC4)c3)cc12` [Compound 57, 5-(5-(Pyrrolidin-1-ylmethyl)pyridin-3-yl)-N-(4-(trifluoromethyl)pyridin-3-yl)-1H-indazole-3-carboxamide], at least 10000 nM; with `COc1ccc(NC(=O)c2n[nH]c3ccc(-c4cncc(CN5CCCCC5)c4)cc23)cn1` [Compound 175, N-(6-Methoxypyridin-3-yl)-5-(5-(piperidin-1-ylmethyl)pyridin-3-yl)-1H-indazole-3-carboxamide], 25 nM.
`CN1CCN(C(=O)c2n[nH]c3ccc(-c4cncc(CN5CCCCC5)c4)cc23)CC1` [Compound 83, (4-Methylpiperazin-1-yl)(5-(5-(piperidin-1-ylmethyl)pyridin-3-yl)-1H-indazol-3-yl)methanone]: the IC50 was in the range of 2500 to 3400 nM.
Take `O=C(Nc1ccc(C(F)(F)F)nc1)c1n[nH]c2ccc(-c3cccnc3)cc12` [Compound 3, 5-(Pyridin-3-yl)-N-(6-(trifluoromethyl)pyridin-3-yl)-1H-indazole-3-carboxamide]: the IC50 stood at 200 nM.
`N#Cc1ccc(NC(=O)c2n[nH]c3ccc(-c4cncc(CN5CCCC5)c4)cc23)cn1` [Compound 52, N-(6-Cyanopyridin-3-yl)-5-(5-(pyrrolidin-1-ylmethyl)pyridin-3-yl)-1H-indazole-3-carboxamide]: the IC50 was 57 nM.
Consider `O=C(Nc1ccc(Oc2ccc(F)cc2)nc1)c1n[nH]c2ccc(-c3cccnc3)cc12` [Compound 20, N-(6-(4-Fluorophenoxy)pyridin-3-yl)-5-(pyridin-3-yl)-1H-indazole-3-carboxamide], for which the IC50 amounted to 118 nM.
Regarding `CN1CCN(c2ccc(NC(=O)c3n[nH]c4ccc(-c5cncc(NC(=O)C6CC6)c5)cc34)cn2)CC1` [Compound 38, 5-(5-(Cyclopropanecarboxamido)pyridin-3-yl)-N-(6-(4-methylpiperazin-1-yl)pyridin-3-yl)-1H-indazole-3-carboxamide], the IC50 stood at 120 nM.
